From patent US10597388B2, “Pyridazinone herbicides” (FMC CORPORATION, priority 2014, dated 2020)

Columns and labels:
Assay in all cases: Test C greenhouse herbicide test, pre- and postemergence
Type in all cases: in vivo
[1] = system: oilseed rape (Brassica napus)
Method in brief: (§1)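 Preemergence: seeds sown in a loam soil–sand blend and sprayed with test chemicals in a non-phytotoxic solvent mixture containing surfactant. Postemergence: plants grown in peat-based medium and treated at 2 to 18 cm (1- to 4-leaf stage). After 13 to 15 d in a greenhouse, injury was visually rated 0–100 against controls.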

[2] = system: velvetleaf (Abutilon theophrasti)
Method in brief: as §1

[3] = system: nutsedge, yellow (yellow nutsedge, Cyperus esculentus)
Method in brief: as §1

[4] = system: wheat (winter wheat, Triticum aestivum)
Method in brief: as §1

[5] = system: blackgrass (Alopecurus myosuroides)
Method in brief: as §1

[6] = system: waterhemp (common waterhemp, Amaranthus rudis)
Method in brief: as §1

[7] = system: ryegrass, Italian (Italian ryegrass, Lolium multiflorum)
Method in brief: as §1

[8] = system: galium (catchweed bedstraw, Galium aparine)
Method in brief: as §1

[9] = system: lambsquarters (Chenopodium album)
Method in brief: as §1

[10] = system: johnsongrass (Sorghum halepense)
Method in brief: as §1

[11] = system: crabgrass, large (large crabgrass, Digitaria sanguinalis)
Method in brief: as §1

[12] = system: morningglory (Ipomoea coccinea)
Method in brief: as §1

[13] = system: pigweed (Amaranthus retroflexus)
Method in brief: as §1

soybean (Glycine max) = system: soybean (Glycine max)
Method in brief: as §1

corn (Zea mays) = system: corn (Zea mays)
Method in brief: as §1

[14] = system: foxtail, giant (giant foxtail, Setaria faberii)
Method in brief: as §1

[15] = Postemergence, 31 g ai/ha, scale 0 to 100 (0 no effect, 100 complete control)
[16] = Postemergence, 125 g ai/ha, scale 0 to 100, 0 is no effect, 100 is complete control
[17] = Postemergence, 250 g ai/ha, scale 0 to 100, 0 no effect, 100 complete control, 13 to 15 d
[18] = postemergence, 62 g ai/ha, scale 0 to 100, 0 no effect, 100 complete control
[19] = Postemergence, 31 g ai/ha, 0 to 100 scale (0 no effect, 100 complete control)
[20] = Preemergence, 31 g ai/ha, scale 0 to 100, 0 is no effect, 100 is complete control
[21] = Preemergence, 62 g ai/ha, scale 0 to 100, 0 is no effect, 100 is complete control
[22] = Preemergence, 125 g ai/ha, scale 0 to 100, 0 is no effect, 100 is complete control
[23] = Preemergence, 250 g ai/ha, scale 0 to 100 (0 no effect, 100 complete control)

Cc1nn(C)c(=O)c(-c2ccc(F)c3ccccc23)c1OC(=O)CC(F)(F)F [Compound 123]
Plant response rating, Oilseed Rape [1, 15]: 0
Plant response rating, Oilseed Rape [1, 16]: 0
Plant response rating, Oilseed Rape [1, 17]: 5
Plant response rating, Velvetleaf [2, 15]: 65
Plant response rating, Velvetleaf [2, 16]: 85
Plant response rating, Velvetleaf [2, 17]: 95
Plant response rating, Nutsedge, Yellow [3, 15]: 55
Plant response rating, Nutsedge, Yellow [3, 16]: 85
Plant response rating, Nutsedge, Yellow [3, 17]: 90
Plant response rating, Wheat [4, 15]: 5
Plant response rating, Wheat [4, 16]: 15
Plant response rating, Wheat [4, 17]: 20
Plant response rating, Blackgrass [5, 15]: 15
Plant response rating, Blackgrass [5, 16]: 45
Plant response rating, Blackgrass [5, 17]: 45
Blackgrass plant response rating [5, 18]: 35
Plant response rating, Waterhemp [6, 15]: 80
Plant response rating, Waterhemp [6, 16]: 100
Plant response rating, Waterhemp [6, 17]: 100
Plant response rating, Ryegrass, Italian [7, 15]: 90
Plant response rating, Ryegrass, Italian [7, 16]: 90
Plant response rating, Ryegrass, Italian [7, 17]: 95
Plant response rating, Galium [8, 15]: 95
Plant response rating, Galium [8, 16]: 95
Plant response rating, Galium [8, 17]: 95
Plant response rating, Lambsquarters [9, 15]: 95
Plant response rating, Lambsquarters [9, 16]: 100
Plant response rating, Lambsquarters [9, 17]: 100
Plant response rating, Johnsongrass [10, 15]: 5
Plant response rating, Johnsongrass [10, 16]: 20
Plant response rating, Johnsongrass [10, 17]: 25
Plant response rating, Crabgrass, Large [11, 15]: 10
Plant response rating, Crabgrass, Large [11, 16]: 30
Plant response rating, Crabgrass, Large [11, 17]: 75
Crabgrass, Large plant response rating [11, 18]: 35
Plant response rating, Morningglory [12, 15]: 95
Plant response rating, Morningglory [12, 16]: 98
Plant response rating, Morningglory [12, 17]: 100
Plant response rating, Pigweed [13, 15]: 65
Plant response rating, Pigweed [13, 16]: 80
Plant response rating, Pigweed [13, 17]: 98
Plant response rating, Soybean (soybean (Glycine max); [15]): 10
Plant response rating, Soybean (soybean (Glycine max); [16]): 20
Plant response rating, Soybean (soybean (Glycine max); [17]): 65
Plant response rating, Corn (corn (Zea mays); [15]): 10
Plant response rating, Corn (corn (Zea mays); [16]): 20
Plant response rating, Corn (corn (Zea mays); [17]): 20
Corn plant response rating (corn (Zea mays); [18]): 15
Plant response rating, Foxtail, Giant [14, 15]: 20
Plant response rating, Foxtail, Giant [14, 16]: 35
Plant response rating, Foxtail, Giant [14, 17]: 80

CCOC(=O)Oc1c(C)nn(C)c(=O)c1-c1c(CC)ccc2ccccc12 [Compound 37]
Oilseed Rape plant response rating [1, 19]: 40
Plant response rating, Oilseed Rape [1, 16]: 40
Plant response rating, Oilseed Rape [1, 17]: 50
Plant response rating, Oilseed Rape [1, 20]: 0
Plant response rating, Oilseed Rape [1, 21]: 40
Plant response rating, Oilseed Rape [1, 22]: 60
Oilseed Rape plant response rating [1, 23]: 90
Oilseed Rape plant response rating [1, 18]: 20
Velvetleaf plant response rating [2, 19]: 20
Plant response rating, Velvetleaf [2, 16]: 85
Plant response rating, Velvetleaf [2, 17]: 90
Plant response rating, Velvetleaf [2, 20]: 25
Plant response rating, Velvetleaf [2, 21]: 80
Plant response rating, Velvetleaf [2, 22]: 85
Velvetleaf plant response rating [2, 23]: 90
Velvetleaf plant response rating [2, 18]: 70
Nutsedge, Yellow plant response rating [3, 19]: 20
Plant response rating, Nutsedge, Yellow [3, 16]: 65
Plant response rating, Nutsedge, Yellow [3, 17]: 60
Plant response rating, Nutsedge, Yellow [3, 20]: 0
Plant response rating, Nutsedge, Yellow [3, 21]: 20
Plant response rating, Nutsedge, Yellow [3, 22]: 40
Nutsedge, Yellow plant response rating [3, 23]: 60
Nutsedge, Yellow plant response rating [3, 18]: 40
Wheat plant response rating [4, 19]: 30
Plant response rating, Wheat [4, 16]: 30
Plant response rating, Wheat [4, 17]: 35
Plant response rating, Wheat [4, 20]: 0
Plant response rating, Wheat [4, 21]: 0
Plant response rating, Wheat [4, 22]: 5
Wheat plant response rating [4, 23]: 45
Wheat plant response rating [4, 18]: 0
Blackgrass plant response rating [5, 19]: 35
Plant response rating, Blackgrass [5, 16]: 80
Plant response rating, Blackgrass [5, 17]: 85
Plant response rating, Blackgrass [5, 20]: 10
Plant response rating, Blackgrass [5, 21]: 30
Plant response rating, Blackgrass [5, 22]: 90
Blackgrass plant response rating [5, 23]: 90
Blackgrass plant response rating [5, 18]: 40
Waterhemp plant response rating [6, 19]: 85
Plant response rating, Waterhemp [6, 16]: 80
Plant response rating, Waterhemp [6, 17]: 98
Plant response rating, Waterhemp [6, 20]: 90
Plant response rating, Waterhemp [6, 21]: 95
Plant response rating, Waterhemp [6, 22]: 95
Waterhemp plant response rating [6, 23]: 100
Waterhemp plant response rating [6, 18]: 80
Ryegrass, Italian plant response rating [7, 19]: 80
Plant response rating, Ryegrass, Italian [7, 16]: 90
Plant response rating, Ryegrass, Italian [7, 17]: 90
Plant response rating, Ryegrass, Italian [7, 20]: 50
Plant response rating, Ryegrass, Italian [7, 21]: 85
Plant response rating, Ryegrass, Italian [7, 22]: 90
Ryegrass, Italian plant response rating [7, 23]: 95
Ryegrass, Italian plant response rating [7, 18]: 85
Galium plant response rating [8, 19]: 90
Plant response rating, Galium [8, 16]: 95
Plant response rating, Galium [8, 17]: 95
Plant response rating, Galium [8, 20]: 100
Plant response rating, Galium [8, 21]: 90
Plant response rating, Galium [8, 22]: 95
Galium plant response rating [8, 23]: 100
Galium plant response rating [8, 18]: 95
Lambsquarters plant response rating [9, 19]: 90
Plant response rating, Lambsquarters [9, 16]: 95
Plant response rating, Lambsquarters [9, 17]: 100
Plant response rating, Lambsquarters [9, 20]: 85
Plant response rating, Lambsquarters [9, 21]: 60
Plant response rating, Lambsquarters [9, 22]: 85
Lambsquarters plant response rating [9, 23]: 90
Lambsquarters plant response rating [9, 18]: 90
Johnsongrass plant response rating [10, 19]: 0
Plant response rating, Johnsongrass [10, 16]: 5
Plant response rating, Johnsongrass [10, 17]: 35
Plant response rating, Johnsongrass [10, 20]: 0
Plant response rating, Johnsongrass [10, 21]: 0
Plant response rating, Johnsongrass [10, 22]: 5
Johnsongrass plant response rating [10, 23]: 0
Johnsongrass plant response rating [10, 18]: 5
Crabgrass, Large plant response rating [11, 19]: 10
Plant response rating, Crabgrass, Large [11, 16]: 25
Plant response rating, Crabgrass, Large [11, 17]: 35
Plant response rating, Crabgrass, Large [11, 20]: 5
Plant response rating, Crabgrass, Large [11, 21]: 5
Plant response rating, Crabgrass, Large [11, 22]: 20
Crabgrass, Large plant response rating [11, 23]: 25
Crabgrass, Large plant response rating [11, 18]: 20
Morningglory plant response rating [12, 19]: 90
Plant response rating, Morningglory [12, 16]: 98
Plant response rating, Morningglory [12, 17]: 98
Plant response rating, Morningglory [12, 20]: 70
Plant response rating, Morningglory [12, 21]: 80
Plant response rating, Morningglory [12, 22]: 90
Morningglory plant response rating [12, 23]: 98
Morningglory plant response rating [12, 18]: 95
Pigweed plant response rating [13, 19]: 85
Plant response rating, Pigweed [13, 16]: 95
Plant response rating, Pigweed [13, 17]: 95
Plant response rating, Pigweed [13, 20]: 98
Plant response rating, Pigweed [13, 21]: 98
Plant response rating, Pigweed [13, 22]: 100
Pigweed plant response rating [13, 23]: 100
Pigweed plant response rating [13, 18]: 100
Soybean plant response rating (soybean (Glycine max); [19]): 10
Plant response rating, Soybean (soybean (Glycine max); [16]): 15
Plant response rating, Soybean (soybean (Glycine max); [17]): 25
Plant response rating, Soybean (soybean (Glycine max); [20]): 0
Plant response rating, Soybean (soybean (Glycine max); [21]): 30
Plant response rating, Soybean (soybean (Glycine max); [22]): 20
Soybean plant response rating (soybean (Glycine max); [23]): 65
Soybean plant response rating (soybean (Glycine max); [18]): 5
Corn plant response rating (corn (Zea mays); [19]): 0
Plant response rating, Corn (corn (Zea mays); [16]): 20
Plant response rating, Corn (corn (Zea mays); [17]): 30
Plant response rating, Corn (corn (Zea mays); [20]): 0
Plant response rating, Corn (corn (Zea mays); [21]): 0
Plant response rating, Corn (corn (Zea mays); [22]): 0
Corn plant response rating (corn (Zea mays); [23]): 20
Corn plant response rating (corn (Zea mays); [18]): 10
Foxtail, Giant plant response rating [14, 19]: 25
Plant response rating, Foxtail, Giant [14, 16]: 60
Plant response rating, Foxtail, Giant [14, 17]: 85
Plant response rating, Foxtail, Giant [14, 20]: 65
Plant response rating, Foxtail, Giant [14, 21]: 75
Plant response rating, Foxtail, Giant [14, 22]: 85
Foxtail, Giant plant response rating [14, 23]: 85
Foxtail, Giant plant response rating [14, 18]: 35
